Where a SMILES comes first, the peptide text is derived from it.
conditions: acidic group

Row | Structure (SMILES) | pKa
1 | C[N+](C)(C)Cc1ccccc1O | 8.71
2 | NC(=O)c1ccc(N)cc1O | 9.12
3 | CC(P)C(=O)O (configuration not stated) | 4.15
4 | O=S(=O)(Nc1ncc(Cl)cn1)c1ccc(O)cc1 | 5.59
5 | CCCCCP(=O)(O)CCCCC | 3.23
6 | O=C([O-])[C@@H]1CC[C@@H](C(=O)O)[Se]1 | 4.35
7 | COc1cccc(C(=O)O)c1 | 4.06
8 | [NH3+]CCS | 8.4
9 | CC(N)c1nnn[n-]1 (configuration not stated) | 8.77
10 | c1ccc2[nH]cnc2c1 | 12.6
11 | O=C(O)c1cccc([N+](=O)[O-])c1C(=O)c1ccccc1 | 2.87
12 | CC(=O)C(Cc1ccc([N+](=O)[O-])cc1)C(C)=O | 9.54
13 | O=C1CC[C@@H](C(=O)O)N1 | 3.4
14 | O/N=C1\CCCc2nonc21 | 8.78
15 | NS(=O)(=O)c1nccs1 | 8.25

Next, values leading:

Row | pKa | Structure (SMILES)
16 | 11.9 | CNC(=N)CCNS(=O)(=O)c1ccc(C)cc1
17 | 4.83 | CC1(C)[C@@H]2CC[C@](C(=O)O)(C2)[C@@H]1O
18 | 10.9 | Oc1cccc2c1Nc1ccccc1N2
19 | 6.4 | [O-][n+]1cccc(O)c1
20 | 9.19 | CCCCCCCC(=O)NO
21 | 10.2 | NCc1ccc(S(N)(=O)=O)cc1
22 | 3.76 | Cc1ccc(C(=O)O)s1
23 | 5.1 | Cc1cc[nH]c1C(=O)O
24 | 5.64 | C(CSCCc1nnn[nH]1)SCCc1nnn[n-]1
25 | 13.9 | CC=C=CC(=O)CC(Cc1ccccc1)C(=O)[O-] (configuration not stated)
26 | 1.94 | O=C(O)[C@@H]1CCC[NH2+]1
27 | 10.8 | CCc1c(O)ccc(C(C)C)c1C
28 | 7.49 | Cc1cccc(C(C)[N+](=O)[O-])c1 (configuration not stated)
29 | 1.8 | CC(C)(S)C(C(=O)O)n1cc[nH+]c1Cc1ccccc1 (configuration not stated)
30 | 9.34 | CCC1(C)CC(=O)NC1=O (configuration not stated)
31 | 4.84 | O=C(O)[C@H]1CC[C@@H](O)CC1
32 | 4.6 | S=c1[nH]cnc2nn[nH]c12
33 | 6.41 | Cc1ccc(=O)c(O)c(Br)c1

same assay, conditions: basic group

Row | Structure (SMILES) | pKa
34 | CCCCCCCN(CCCCCCC)c1ccccc1 | 3.33
35 | N=C(c1ccccc1)c1ccccc1Cl | 5.59
36 | CCCCCC/[NH+]=C/c1c(C)cnc(C)c1O | 3.39
37 | Cc1ccc2nccc(NCCC[NH+](C)C)c2c1[N+](=O)[O-] | 6.15
38 | [S-]c1ccnc2ccccc12 | 8.83
39 | N/C(=N\O)C(N)c1ccccc1 (configuration not stated) | 7.15
40 | c1ccc2[nH]cnc2c1 | 5.51
41 | c1ccc(CN(Cc2ccccc2)Cc2ccccc2)cc1 | 7.44
42 | O=C(O)c1ccc(O)c2ncccc12 | 4
43 | CNCCc1ccccc1 | 10.2
44 | NCCCCN | 10.6
45 | NCC(=O)NCC(=O)[O-] | 8.31
46 | CC[NH2+]/C(=C/C(=O)c1cccc(S(=O)(=O)[O-])c1)n1ccnc1 | 4.5
47 | c1ccc2scnc2c1 | 1.38

The remaining lines, values ahead:

Row | pKa | Structure (SMILES)
48 | 10 | CNC(=N)CCNS(=O)(=O)c1ccc(C)cc1
49 | 11.5 | CN1CCCC2CCN=C21 (configuration not stated)
50 | 2.46 | COc1cc(S(C)=O)ccc1-c1cn2ccnc(OC)c2n1 (configuration not stated)
51 | 3.12 | O=[N+]([O-])c1ccc(/C=N/c2ncccn2)cc1
52 | 8.35 | NCc1ccc(S(N)(=O)=O)cc1
53 | -0.57 | Cc1ccc(C(=O)O)s1
54 | 10.1 | CCN(CC)CCCCC#N
55 | 3.21 | COc1cnnc2ccccc12
56 | 4.63 | O=Cc1ccncc1
57 | 9.3 | NCC=C(Cl)Cl
58 | 2.8 | c1ccc(NCC[NH+]2CCCCC2)cc1
59 | 9.03 | CCSCCN(CC)CC
60 | 0 | C=Cc1c(C)c2cc3[nH+]c(c(CC(=O)OC)c4[nH]c(cc5nc(cc1[nH]2)C(C)=C5CC)c(C)c4C(=O)NCC)[C@@H](CCC(=O)OC)[C@@H]3C
61 | 7.31 | CCOC(=O)N1CCN(C)CC1
62 | 3.6 | CC(=O)c1ccncc1
63 | 8.26 | NC(CC(=O)[O-])C(=O)NC(CC(=O)[O-])C(=O)[O-] (stereo not drawn) (H-Asp-Asp-OH; configuration not given here)
64 | 10.6 | CCOC(=O)COc1ccc(C(=O)c2ccc([O-])c(CN)c2)c(Cl)c1Cl
65 | 2.21 | O=[N+]([O-])c1ccc2[nH]c(CCl)nc2c1
66 | 11.7 | O=C([O-])C(NCCNC(C(=O)[O-])c1ccccc1[O-])c1ccccc1[O-] (configuration not stated)
67 | 6.71 | Cc1c([N+](=O)[O-])ccc2c(NCCC[NH+](C)C)ccnc12
